Laboratory results reported in PubChem BioAssay (NCI).
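Five concentrations, 48 hours, 96-well plates. TGI denotes the concentration required for complete inhibition of growth.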

Experiments:
Assay in all cases: growth of human tumour cells (NCI), 48 h
[1] = tested on: SK-OV-3 ovarian
[2] = tested on: MDA-MB-231 breast
[3] = tested on: NCI/ADR-RES ovarian
[4] = tested on: MDA-MB-435
[5] = tested on: NCI-H522 lung
[6] = tested on: DU-145 prostate
[7] = tested on: OVCAR-5 ovarian
[8] = tested on: CCRF-CEM leukemia
[9] = tested on: RXF 393 renal
[10] = tested on: IGROV1 ovarian
[11] = tested on: SF-295 CNS
[12] = tested on: UACC-257 melanoma
[13] = tested on: HCT-116 colon
[14] = tested on: SF-539 CNS
[15] = tested on: HOP-92 NSCLC
[16] = tested on: ACHN renal
[17] = tested on: SW-620 colon
[18] = tested on: A498 renal
[19] = tested on: UO-31 renal
[20] = tested on: EKVX NSCLC
[21] = tested on: OVCAR-8 ovarian
[22] = tested on: U251 CNS
[23] = tested on: SK-MEL-2 melanoma
[24] = tested on: M14 melanoma
[25] = tested on: TK-10 renal
[26] = tested on: MDA-N
[27] = tested on: SNB-19 CNS
[28] = tested on: HCT-15 colon
[29] = tested on: HT29 colon
[30] = tested on: PC-3 prostate
[31] = tested on: SNB-75 CNS
[32] = tested on: HS 578T breast
[33] = tested on: KM12 colon
[34] = tested on: MOLT-4 leukemia
[35] = tested on: MCF7 breast
[36] = tested on: SK-MEL-5 melanoma
[37] = tested on: SN12C renal
[38] = tested on: RPMI-8226 leukemia
[39] = tested on: T-47D breast
[40] = tested on: SF-268 CNS
[41] = tested on: OVCAR-4 ovarian
[42] = tested on: HL-60(TB) leukemia
[43] = tested on: NCI-H226 lung
[44] = tested on: OVCAR-3 ovarian
[45] = tested on: BT-549 breast
[46] = tested on: K-562 leukemia
[47] = tested on: COLO 205 colon
[48] = tested on: CAKI-1 renal
[49] = tested on: A549 NSCLC
[50] = tested on: NCI-H460 lung
[51] = tested on: HCC-2998 colon
[52] = tested on: 786-0 renal
[53] = tested on: MALME-3M melanoma
[54] = tested on: UACC-62 melanoma
[55] = tested on: SK-MEL-28 melanoma
[56] = tested on: HOP-62 NSCLC
[57] = tested on: NCI-H23 lung
[58] = tested on: LOX IMVI melanoma
[59] = tested on: SR leukemia

Measured: TGI

O=C(Nc1ccc(Cl)cc1)c1cc(S(=O)(=O)Nc2nc3ncccc3[nH]2)c(SSc2cc(Cl)c(C(=O)Nc3ccc(Cl)cc3)cc2S(=O)(=O)Nc2nc3ncccc3[nH]2)cc1Cl
not listed: [59]
> 100 µM: all other assays above

CCCCCCCCCCCCCOCCOCCOCCCCC(O)CCCCCCCCCC1=C[C@H](C)OC1=O (stereo not given in full)
74.4 µM: [51]
29.2 µM: [11]
34.2 µM: [59]
49.2 µM: [52]
43.7 µM: [27]
44.2 µM: [44]
16.7 µM: [5]
71.4 µM: [37]
37.2 µM: [34]
33.4 µM: [13]
76.9 µM: [17]
47.5 µM: [9]
44.4 µM: [19] | [48]
38 µM: [43]
31.5 µM: [55]
36.9 µM: [49]
82.2 µM: [40]
48 µM: [28]
37.7 µM: [12]
52.3 µM: [47]
71.7 µM: [30]
41.4 µM: [3]
16 µM: [42]
30.2 µM: [36]
37.6 µM: [10]
42.2 µM: [22]
66.3 µM: [6]
47.6 µM: [32]
54 µM: [54]
35.9 µM: [38]
22.5 µM: [25]
57.1 µM: [4]
42.6 µM: [58]
27.9 µM: [45]
71.9 µM: [41]
78.7 µM: [7]
50.5 µM: [2]
57.6 µM: [29]
63 µM: [23]
60 µM: [57]
45.3 µM: [14] | [26]
not listed: [15] | [18] | [20] | [53]
> 100 µM: all other assays above

CCN(CC)P(=O)(c1ccc2c(c1)OCCOCCOCCOCCO2)N(CC)CC
not listed: [3] | [7] | [9] | [12] | [15] | [22] | [23] | [29] | [41] | [44]
> 100 µM: all other assays above

O=S(=O)(O)c1cc(O)c(N=NC2S(=O)(=O)OCCOS2(=O)=O)c2ccccc12
not listed: [59]
> 100 µM: all other assays above
